Assay: Microsomal stability, human liver microsomes (predicted hepatic clearance)
Settings: predicted from in vitro microsomal stability data

Row | Predicted Hepatic Clearance (Pred. Cl.) | Compound
1 | 5.17 mL/min/kg | N#Cc1ccc(COc2cccc(-c3ccc(Cc4nc5ccc(C(=O)O)cc5n4CC4CCO4)c(F)c3)n2)c(F)c1 (single isomer, unassigned) [Example 67, 2-(4-(6-((4-Cyano-2-fluorobenzyl)oxy)pyridin-2-yl)-2-fluorobenzyl)-1-(oxetan-2-ylmethyl)-1H-benzo[d]imidazole-6-carboxylic acid]
2 | <1.83 mL/min/kg | N#Cc1ccc(COc2cccc(-c3ccc(Cc4nc5ccc(C(=O)O)cc5n4CC4CCO4)c(F)c3)n2)c(F)c1 (single isomer, unassigned) [Example 68, 2-(4-(6-((4-Cyano-2-fluorobenzyl)oxy)pyridin-2-yl)-2-fluorobenzyl)-1-(oxetan-2-ylmethyl)-1H-benzo[d]imidazole-6-carboxylic acid]
3 | 6 mL/min/kg | COCCn1c(C(C)c2ccc(-c3cccc(OCc4ccc(C#N)cc4F)n3)cc2)nc2ccc(C(=O)O)cc21 (single isomer, unassigned) [Example 439, 2-(1-(4-(6-((4-cyano-2-fluorobenzyl)oxy)pyridin-2-yl)phenyl)ethyl)-1-(2-methoxyethyl)-1H-benzo[d]imidazole-6-carboxylic acid]
4 | 3.3 mL/min/kg | N#Cc1ccc(COc2cccc(-c3ccc(Cc4nc5ccc(C(=O)O)cc5n4CC4CCO4)c(F)c3)n2)c(F)c1 (stereo not shown) [Example 15, 2-(4-(6-((4-cyano-2-fluorobenzyl)oxy)pyridin-2-yl)-2-fluorobenzyl)-1-(oxetan-2-ylmethyl)-1H-benzo[d]imidazole-6-carboxylic acid]
5 | 7 mL/min/kg | COCCn1c(Cn2cc(-c3csc(OCc4ccc(C#N)cc4F)n3)cn2)nc2ccc(C(=O)O)cc21 [Example 78, 2-((4-(2-((4-cyano-2-fluorobenzyl)oxy)thiazol-4-yl)-1H-pyrazol-1-yl)methyl)-1-(2-methoxyethyl)-1H-benzo[d]imidazole-6-carboxylic acid]
6 | 2.33 mL/min/kg | COCCn1c(Cc2ccc(-c3cc(-c4cnn(C)c4)cc(OCc4ccc(C#N)cc4F)n3)cc2F)nc2ccc(C(=O)O)cc21 [Example 99, 2-(4-(6-((4-cyano-2-fluorobenzyl)oxy)-4-(1-methyl-1H-pyrazol-4-yl)pyridin-2-yl)-2-fluorobenzyl)-1-(2-methoxyethyl)-1H-benzo[d]imidazole-6-carboxylic acid]
7 | <1.83 mL/min/kg | COCCn1c(Cc2ccc(-c3cc(C#Cc4ccccc4)cc(OCc4ccc(C#N)cc4F)n3)cc2F)nc2ccc(C(=O)O)cc21 [Example 100, 2-(4-(6-((4-cyano-2-fluorobenzyl)oxy)-4-(phenylethynyl)pyridin-2-yl)-2-fluorobenzyl)-1-(2-methoxyethyl)-1H-benzo[d]imidazole-6-carboxylic acid]
8 | 12 mL/min/kg | COCCn1c(Cc2ccc(-c3cccc(OCc4ccc(C#N)cc4F)n3)cc2-c2cccnc2)nc2ccc(C(=O)O)cc21 [Example 185, 2-(4-(6-((4-cyano-2-fluorobenzyl)oxy)pyridin-2-yl)-2-(pyridin-3-yl)benzyl)-1-(2-methoxyethyl)-1H-benzo[d]imidazole-6-carboxylic acid]
9 | 7.83 mL/min/kg | COCCn1c(Cc2c(F)cc(-c3cnccc3OCc3ccc(C#N)cc3F)cc2F)nc2ccc(C(=O)O)cc21 [Example 191, 2-(4-(4-((4-cyano-2-fluorobenzyl)oxy)pyridin-3-yl)-2,6-difluorobenzyl)-1-(2-methoxyethyl)-1H-benzo[d]imidazole-carboxylic acid]
10 | 9.17 mL/min/kg | COCCn1c(Cc2ccc(-c3nnc(OCc4ccc(C#N)cc4F)s3)cc2F)nc2ccc(C(=O)O)cc21 [Example 213, 2-(4-(5-((4-cyano-2-fluorobenzyl)oxy)-1,3,4-thiadiazol-2-yl)-2-fluorobenzyl)-1-(2-methoxyethyl)-1H-benzo[d]imidazole-carboxylic acid]

From US11702404B2, “GLP-1R modulating compounds” (priority 2019, dated 2023)
